Results published in ChEMBL document CHEMBL1743201, “Casarett and Doull's Toxicology The Basic Science of Poisons, 7th edition” (2008).

Key:
Format in all cases: ADME
[1] = molecular target: Sulfotransferase 1A1 (Homo sapiens, UniProt P50225); test: Major substrate of human cytosolic sulfotransferase SULT1A1
[2] = molecular target: T1, Sulfotransferase 1E1 (Homo sapiens, UniProt P49888); test: Major substrate of human cytosolic sulfotransferase SULT1E1
T1 sequence (P49888 whole entry): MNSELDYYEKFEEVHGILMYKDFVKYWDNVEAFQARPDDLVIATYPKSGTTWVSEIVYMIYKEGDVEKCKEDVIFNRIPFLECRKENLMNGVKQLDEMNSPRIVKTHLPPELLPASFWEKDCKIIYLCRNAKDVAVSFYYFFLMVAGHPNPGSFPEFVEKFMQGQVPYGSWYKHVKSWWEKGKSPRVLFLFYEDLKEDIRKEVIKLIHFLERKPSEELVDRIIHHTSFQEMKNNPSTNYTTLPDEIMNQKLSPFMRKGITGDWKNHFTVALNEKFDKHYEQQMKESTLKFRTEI

[3] = molecular target: T2, Sulfotransferase 2A1 (Homo sapiens, UniProt Q06520); test: Major substrate of human cytosolic sulfotransferase SULT2A1
T2 sequence (Q06520 whole entry): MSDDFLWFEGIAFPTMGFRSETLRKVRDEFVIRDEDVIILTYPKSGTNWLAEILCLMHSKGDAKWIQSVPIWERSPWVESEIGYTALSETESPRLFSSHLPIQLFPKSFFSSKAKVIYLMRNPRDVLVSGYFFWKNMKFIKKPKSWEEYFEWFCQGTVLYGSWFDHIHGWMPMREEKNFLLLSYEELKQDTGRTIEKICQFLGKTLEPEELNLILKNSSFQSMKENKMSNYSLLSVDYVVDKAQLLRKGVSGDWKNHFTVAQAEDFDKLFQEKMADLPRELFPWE

[4] = molecular target: T3, Glutathione S-transferase A1 (Homo sapiens, UniProt P08263); test: Substrates for human cytosolic glutathione transferase GSTA1
T3 sequence (P08263 whole entry): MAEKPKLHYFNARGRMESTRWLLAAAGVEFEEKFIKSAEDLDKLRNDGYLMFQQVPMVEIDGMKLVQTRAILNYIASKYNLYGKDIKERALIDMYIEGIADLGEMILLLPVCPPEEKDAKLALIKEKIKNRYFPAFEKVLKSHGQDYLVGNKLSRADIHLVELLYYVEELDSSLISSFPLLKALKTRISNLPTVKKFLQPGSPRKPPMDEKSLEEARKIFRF

[5] = molecular target: T4, Cytochrome P450 1A2 (Homo sapiens, UniProt P05177); test: Clinically relevant substrates of human liver microsomal P450 enzymes, isoform CYP1A2; details: microsomes
T4 sequence (P05177 whole entry): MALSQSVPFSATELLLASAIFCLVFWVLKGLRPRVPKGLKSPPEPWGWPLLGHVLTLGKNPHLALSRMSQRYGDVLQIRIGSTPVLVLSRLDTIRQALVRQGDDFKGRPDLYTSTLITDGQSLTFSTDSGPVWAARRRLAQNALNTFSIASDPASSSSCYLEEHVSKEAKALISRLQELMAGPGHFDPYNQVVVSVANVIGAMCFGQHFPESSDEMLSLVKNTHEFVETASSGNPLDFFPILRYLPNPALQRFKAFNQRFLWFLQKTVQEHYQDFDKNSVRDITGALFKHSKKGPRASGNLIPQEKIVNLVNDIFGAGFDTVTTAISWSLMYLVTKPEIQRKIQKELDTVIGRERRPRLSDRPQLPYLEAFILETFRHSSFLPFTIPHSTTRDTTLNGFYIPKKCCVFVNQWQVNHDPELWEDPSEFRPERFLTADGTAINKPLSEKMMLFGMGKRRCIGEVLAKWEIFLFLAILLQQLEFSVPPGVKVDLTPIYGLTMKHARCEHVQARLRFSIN

[6] = molecular target: T5, UDP-glucuronosyltransferase 1A8 (Homo sapiens, UniProt Q9HAW9); test: Substrate of human UDP-glucuronosyltransferase UGT1A8
T5 sequence (Q9HAW9 whole entry): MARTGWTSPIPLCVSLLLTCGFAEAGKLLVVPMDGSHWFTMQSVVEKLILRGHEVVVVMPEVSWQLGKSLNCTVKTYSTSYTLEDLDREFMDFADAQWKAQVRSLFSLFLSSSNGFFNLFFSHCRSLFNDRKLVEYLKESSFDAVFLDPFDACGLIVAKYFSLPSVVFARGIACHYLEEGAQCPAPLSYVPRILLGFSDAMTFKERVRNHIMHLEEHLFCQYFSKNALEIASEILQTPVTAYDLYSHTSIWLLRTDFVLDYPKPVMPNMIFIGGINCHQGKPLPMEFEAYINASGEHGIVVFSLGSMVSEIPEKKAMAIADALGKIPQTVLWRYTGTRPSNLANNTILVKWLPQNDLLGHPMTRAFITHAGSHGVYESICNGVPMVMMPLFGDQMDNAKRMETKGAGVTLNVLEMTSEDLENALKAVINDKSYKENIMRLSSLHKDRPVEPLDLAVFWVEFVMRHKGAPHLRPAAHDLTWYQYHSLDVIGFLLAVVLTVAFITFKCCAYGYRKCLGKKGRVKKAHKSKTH

[7] = molecular target: T6, UDP-glucuronosyltransferase 2B7 (Homo sapiens, UniProt P16662); test: Substrate of human UDP-glucuronosyltransferase UGT2B7
T6 sequence (P16662 whole entry): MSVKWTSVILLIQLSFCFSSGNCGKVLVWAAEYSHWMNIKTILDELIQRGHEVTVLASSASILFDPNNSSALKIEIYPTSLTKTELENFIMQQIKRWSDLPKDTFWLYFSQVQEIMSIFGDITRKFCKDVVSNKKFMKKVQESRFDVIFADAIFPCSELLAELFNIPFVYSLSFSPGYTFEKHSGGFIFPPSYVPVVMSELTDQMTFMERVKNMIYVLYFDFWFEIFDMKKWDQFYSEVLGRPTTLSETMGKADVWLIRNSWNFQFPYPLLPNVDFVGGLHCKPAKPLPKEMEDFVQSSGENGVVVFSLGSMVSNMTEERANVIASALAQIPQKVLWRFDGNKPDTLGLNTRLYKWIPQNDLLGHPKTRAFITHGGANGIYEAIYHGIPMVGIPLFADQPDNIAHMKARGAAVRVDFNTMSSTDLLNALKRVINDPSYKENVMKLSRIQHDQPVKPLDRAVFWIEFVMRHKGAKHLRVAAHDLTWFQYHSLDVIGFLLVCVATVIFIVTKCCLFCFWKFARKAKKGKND

[8] = molecular target: T7, UDP-glucuronosyltransferase 1A9 (Homo sapiens, UniProt O60656); test: Substrate of human UDP-glucuronosyltransferase UGT1A9
T7 sequence (O60656 whole entry): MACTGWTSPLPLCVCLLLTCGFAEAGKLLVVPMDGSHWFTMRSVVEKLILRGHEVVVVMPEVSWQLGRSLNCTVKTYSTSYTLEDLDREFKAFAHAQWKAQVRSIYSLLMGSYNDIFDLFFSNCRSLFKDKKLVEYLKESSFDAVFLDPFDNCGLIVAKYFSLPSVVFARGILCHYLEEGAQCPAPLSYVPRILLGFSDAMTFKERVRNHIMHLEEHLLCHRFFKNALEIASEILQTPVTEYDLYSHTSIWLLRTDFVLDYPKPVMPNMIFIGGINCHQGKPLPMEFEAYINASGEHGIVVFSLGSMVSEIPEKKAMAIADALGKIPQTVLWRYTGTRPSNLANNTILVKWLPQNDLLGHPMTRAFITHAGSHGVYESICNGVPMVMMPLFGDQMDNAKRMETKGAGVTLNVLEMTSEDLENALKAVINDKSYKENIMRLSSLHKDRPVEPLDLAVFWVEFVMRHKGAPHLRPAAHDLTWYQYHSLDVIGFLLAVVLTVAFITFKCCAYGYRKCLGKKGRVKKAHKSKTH

Sequence of Sulfotransferase 1A1 (P50225 whole entry): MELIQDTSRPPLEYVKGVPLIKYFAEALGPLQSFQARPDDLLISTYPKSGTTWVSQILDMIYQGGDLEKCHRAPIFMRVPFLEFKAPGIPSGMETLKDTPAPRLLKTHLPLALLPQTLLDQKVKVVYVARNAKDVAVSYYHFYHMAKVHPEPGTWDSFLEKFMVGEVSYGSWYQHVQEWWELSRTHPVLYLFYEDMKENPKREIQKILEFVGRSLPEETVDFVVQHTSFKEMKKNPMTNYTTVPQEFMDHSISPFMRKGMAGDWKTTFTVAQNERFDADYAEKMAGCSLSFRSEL

CCc1ccc(O)cc1
Activity [1]: Substrate

C[C@]12CC[C@@H]3c4ccc(O)c(O)c4CC[C@H]3[C@@H]1CC[C@@H]2O
Activity [2]: Substrate

OCc1c2ccccc2c2ccc3cccc4ccc1c2c43
Activity [3]: Substrate

O=C(O)Cc1cn(-c2ccc(O)cc2)nc1-c1ccc(Cl)cc1
Activity [2]: Substrate

Cn1c(NO)nc2ncc(-c3ccccc3)cc21
Activity [1]: Substrate

CC(C)[N+](=O)[O-]
Activity [1]: Substrate

C[C@]12CC[C@@H]3c4cc(O)c(O)cc4CC[C@H]3[C@@H]1CC[C@@H]2O
Activity [2]: Substrate

Cn1c(N)nc2ncc(-c3ccccc3)cc21 [2-AMINO-1-METHYL-6- PHENYLIMIDAZO[4,5- B]PYRIDINE]
Activity [4]: Substrate

C[C@]12CC[C@@H]3c4cc(O)c(O)cc4CC[C@H]3[C@@H]1CCC2=O [2-HYDROXYESTRONE]
Activity [2]: Substrate

Cc1[nH]cnc1CN1CCc2c(c3ccccc3n2C)C1=O [ALOSETRON]
Activity [5]: Substrate

O=C1c2ccccc2C(=O)c2ccccc21 [ANTHRAQUINONE]
Activity [6]: Substrate

CN1CCc2cccc3c2[C@H]1Cc1ccc(O)c(O)c1-3 [APOMORPHINE]
Activity [1]: Substrate

CC(C(=O)O)c1ccc2oc(-c3ccc(Cl)cc3)nc2c1 (stereo unspecified) [BENOXAPROFEN]
Activity [7]: Substrate

OC1c2ccc3ccc4ccccc4c3c2C2OC2C1O (stereo unspecified) [BENZO[C]PHENANTHRENE DIOL EPOXIDE]
Activity [4]: Substrate

OC1c2ccc3c4ccccc4c4ccccc4c3c2C2OC2C1O (stereo unspecified) [BENZO[G]CHRYSENE DIOL EPOXIDE]
Activity [4]: Substrate

CCCC1O[C@@H]2C[C@H]3[C@@H]4CCC5=CC(=O)C=C[C@]5(C)[C@H]4[C@@H](O)C[C@]3(C)[C@]2(C(=O)CO)O1 (stereo partly specified) [BUDESONIDE]
Activity [3]: Substrate

CCCCNc1cc(C(=O)O)cc(S(N)(=O)=O)c1Oc1ccccc1 [BUMETANIDE]
Activity [8]: Substrate

CS(=O)(=O)OCCCCOS(C)(=O)=O [BUSULFAN]
Activity [4]: Substrate

Cn1c(=O)c2c(ncn2C)n(C)c1=O [CAFFEINE]
Activity [5]: Substrate

CC(C)(Oc1ccc(C2CC2(Cl)Cl)cc1)C(=O)O (stereo unspecified) [CIPROFIBRATE]
Activity [6]: Substrate

CC(C)(Oc1ccc(Cl)cc1)C(=O)O [CLOFIBRIC ACID]
Activity [6]: Substrate
Activity [7]: Substrate

O=C(O)c1cc(-c2ccc(F)cc2F)ccc1O [DIFLUNISAL]
Activity [6]: Substrate
Activity [8]: Substrate

CNCC[C@H](Oc1cccc2ccccc12)c1cccs1 [DULOXETINE]
Activity [5]: Substrate

C[C@]12CCc3c(ccc4cc(O)ccc34)[C@@H]1CCC2=O [EQUILENIN]
Activity [2]: Substrate

CCOc1ccc2nc3ccc(=O)cc-3oc2c1 [ETHOXYRESORUFIN]
Activity [5]: Substrate

CC(C)OC(=O)C(C)(C)Oc1ccc(C(=O)c2ccc(Cl)cc2)cc1 [FENOFIBRATE]
Activity [8]: Substrate

CCN(CC)CCNc1ccc(CO)c2sc3ccccc3c(=O)c12 [HYCANTHONE]
Activity [3]: Substrate

Nc1cc(N2CCCCC2)nc(N)[n+]1[O-] [MINOXIDIL]
Activity [1]: Substrate

CN1CC[C@]23c4c5ccc(O)c4O[C@H]2[C@@H](O[C@@H]2O[C@H](C(=O)O)[C@@H](O)[C@H](O)[C@H]2O)C=C[C@H]3[C@H]1C5 [MORPHINE GLUCURONIDE]
Activity [7]: Substrate

C=CCN1CC[C@]23c4c5ccc(O)c4O[C@H]2C(=O)CC[C@@]3(O)[C@H]1C5 [NALOXONE]
Activity [7]: Substrate

O=C1C[C@@H](c2ccc(O)cc2)Oc2cc(O)cc(O)c21 [NARINGENIN]
Activity [2]: Substrate

O=C(O)c1cccnc1Nc1cccc(C(F)(F)F)c1 [NIFLUMIC ACID]
Activity [6]: Substrate

Oc1cccc2cccnc12 [OXYQUINOLINE]
Activity [6]: Substrate

CCOc1ccc(NC(C)=O)cc1 [PHENACETIN]
Activity [5]: Substrate

CC(C)c1cccc(C(C)C)c1O [PROPOFOL]
Activity [8]: Substrate

O=C(O)c1ccccc1O [SALICYLIC ACID]
Activity [8]: Substrate

Nc1c2c(nc3ccccc13)CCCC2 [TACRINE]
Activity [5]: Substrate

CC/C(=C(\c1ccccc1)c1ccc(OCCN(C)C)cc1)c1ccccc1 [TAMOXIFEN]
Activity [2]: Substrate

Cn1c(=O)c2[nH]cnc2n(C)c1=O.O [THEOPHYLLINE]
Activity [5]: Substrate

CC(C(=O)O)c1ccc(C(=O)c2ccccc2)s1 (stereo unspecified) [TIAPROFENIC ACID]
Activity [7]: Substrate

Clc1ccc2nsnc2c1NC1=NCCN1 [TIZANIDINE]
Activity [5]: Substrate

Cc1cn([C@H]2C[C@H](N=[N+]=[N-])[C@@H](CO)O2)c(=O)[nH]c1=O [ZIDOVUDINE]
Activity [7]: Substrate

Cc1cc(CC(=O)O)n(C)c1C(=O)c1ccc(Cl)cc1 [ZOMEPIRAC]
Activity [7]: Substrate

Cc1ccc(O)cc1 [p-CRESOL]
Activity [1]: Substrate
